# Experimental data published in ChEMBL document CHEMBL1201862, “PubChem BioAssay data set” (2004).
#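 Exposure lasted 48 hours, with cells grown in 96-well plates and compounds tested at five concentrations. GI50 is the concentration that inhibits growth by half.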 Calls of active or inactive are those of the source. Rule as the data show it: active = GI50 up to about 1.1 µM and inactive = higher.
# Assays:
# Assay in all cases: NCI anticancer screen, dose series, 48 h
# [1] = tested on: COLO 205
# [2] = tested on: SNB-75
# [3] = tested on: HOP-18
# [4] = tested on: SK-MEL-5
# [5] = tested on: RPMI-8226
# [6] = tested on: HCT-15
# [7] = tested on: ACHN
# [8] = tested on: 786-0
# [9] = tested on: OVCAR-8
# [10] = tested on: K562
# [11] = tested on: SF-268
# [12] = tested on: HCC 2998
# [13] = tested on: Malme-3M
# [14] = tested on: DMS-114
# [15] = tested on: IGROV-1
# [16] = tested on: OVCAR-3
# [17] = tested on: SNB-78
# [18] = tested on: EKVX
# [19] = tested on: HOP-92
# [20] = tested on: SN12C
# [21] = tested on: U-251
# [22] = tested on: DMS-273
# [23] = tested on: HT-29
# [24] = tested on: KM-20L2
# [25] = tested on: UACC-62
# [26] = tested on: SF-539
# [27] = tested on: SW-620
# [28] = tested on: HOP-62
# [29] = tested on: CAKI-1
# [30] = tested on: SNB-19
# [31] = tested on: M19-MEL
# [32] = tested on: A549
# [33] = tested on: SK-MEL-28
# [34] = tested on: CCRF-CEM
# [35] = tested on: HCT-116
# [36] = tested on: XF498
# [37] = tested on: A498
# [38] = tested on: MOLT-4
# [39] = tested on: UACC-257
# [40] = tested on: M14
# [41] = tested on: SK-MEL-2
# [42] = tested on: NCI-H522
# [43] = tested on: OVCAR-5
# [44] = tested on: NCI-H460
# [45] = tested on: HL-60
# [46] = tested on: NCI-H23
# [47] = tested on: TK-10
# [48] = tested on: LOX IMVI
# [49] = tested on: KM12
# [50] = tested on: RXF 393
# [51] = tested on: UO-31
# [52] = tested on: SK-OV-3
# [53] = tested on: SR
# [54] = tested on: OVCAR-4
# [55] = tested on: LXFL 529
# [56] = tested on: NCI-H226
# [57] = tested on: DLD-1
# [58] = tested on: SF-295
smiles,measurement,setting,value
NC(=O)c1ccccc1[N+](=O)[O-],GI50,[1],> 100 µM (inactive)
same,GI50,[2],> 100 µM (inactive)
same,GI50,[3],> 100 µM (inactive)
same,GI50,[4],> 100 µM (inactive)
same,GI50,[5],> 100 µM (inactive)
same,GI50,[6],> 100 µM
same,GI50,[7],> 100 µM (inactive)
same,GI50,[8],> 100 µM (inactive)
same,GI50,[9],> 100 µM (inactive)
same,GI50,[10],> 100 µM (inactive)
same,GI50,[11],> 100 µM (inactive)
same,GI50,[12],> 100 µM (inactive)
same,GI50,[13],> 100 µM (inactive)
same,GI50,[14],> 100 µM (inactive)
same,GI50,[15],> 100 µM (inactive)
same,GI50,[16],> 100 µM (inactive)
same,GI50,[17],> 100 µM (inactive)
same,GI50,[18],> 100 µM (inactive)
same,GI50,[19],> 100 µM (inactive)
same,GI50,[20],> 100 µM (inactive)
same,GI50,[21],> 100 µM (inactive)
same,GI50,[22],> 100 µM (inactive)
same,GI50,[23],> 100 µM (inactive)
same,GI50,[24],> 100 µM (inactive)
same,GI50,[25],> 100 µM (inactive)
same,GI50,[26],> 100 µM (inactive)
same,GI50,[27],> 100 µM (inactive)
same,GI50,[28],> 100 µM (inactive)
same,GI50,[29],> 100 µM (inactive)
same,GI50,[30],> 100 µM (inactive)
same,GI50,[31],> 100 µM (inactive)
same,GI50,[32],> 100 µM (inactive)
same,GI50,[33],> 100 µM (inactive)
same,GI50,[34],> 10 µM (inactive)
same,GI50,[35],> 100 µM (inactive)
same,GI50,[36],> 100 µM (inactive)
same,GI50,[37],> 100 µM (inactive)
same,GI50,[38],> 100 µM (inactive)
Cc1ccc(NC(=O)/C(=N/NC(=O)CC#N)C2C(=O)N(c3ccccc3)N=C2N)cc1C (stereo not given),GI50,[1],> 100 µM (inactive)
same,GI50,[2],> 100 µM (inactive)
same,GI50,[3],> 100 µM (inactive)
same,GI50,[4],> 100 µM (inactive)
same,GI50,[39],> 100 µM (inactive)
same,GI50,[5],> 100 µM (inactive)
same,GI50,[40],> 100 µM (inactive)
same,GI50,[41],> 100 µM (inactive)
same,GI50,[42],> 100 µM (inactive)
same,GI50,[6],> 100 µM
same,GI50,[7],> 100 µM (inactive)
same,GI50,[8],> 100 µM (inactive)
same,GI50,[43],> 100 µM (inactive)
same,GI50,[9],> 100 µM (inactive)
same,GI50,[44],> 100 µM (inactive)
same,GI50,[10],> 100 µM (inactive)
same,GI50,[11],> 100 µM (inactive)
same,GI50,[12],> 100 µM (inactive)
same,GI50,[45],> 100 µM (inactive)
same,GI50,[46],> 100 µM (inactive)
same,GI50,[13],> 100 µM (inactive)
same,GI50,[14],> 100 µM (inactive)
same,GI50,[47],> 100 µM (inactive)
same,GI50,[48],> 100 µM (inactive)
same,GI50,[49],> 100 µM (inactive)
same,GI50,[50],> 100 µM (inactive)
same,GI50,[15],> 100 µM (inactive)
same,GI50,[16],> 100 µM (inactive)
same,GI50,[51],> 100 µM (inactive)
same,GI50,[17],> 100 µM (inactive)
same,GI50,[18],> 100 µM (inactive)
same,GI50,[19],> 100 µM (inactive)
same,GI50,[20],> 100 µM (inactive)
same,GI50,[52],> 100 µM (inactive)
same,GI50,[21],> 100 µM (inactive)
same,GI50,[22],> 100 µM (inactive)
same,GI50,[23],> 100 µM (inactive)
same,GI50,[24],> 100 µM (inactive)
same,GI50,[53],> 100 µM (inactive)
same,GI50,[25],> 100 µM (inactive)
same,GI50,[26],> 100 µM (inactive)
same,GI50,[27],> 100 µM (inactive)
same,GI50,[54],> 100 µM (inactive)
same,GI50,[28],> 100 µM (inactive)
same,GI50,[29],> 100 µM (inactive)
same,GI50,[30],> 100 µM (inactive)
same,GI50,[55],> 100 µM (inactive)
same,GI50,[56],> 100 µM (inactive)
same,GI50,[31],> 100 µM (inactive)
same,GI50,[32],> 100 µM (inactive)
same,GI50,[33],> 100 µM (inactive)
same,GI50,[34],> 100 µM (inactive)
same,GI50,[35],> 100 µM (inactive)
same,GI50,[36],> 100 µM (inactive)
same,GI50,[57],> 100 µM (inactive)
same,GI50,[58],> 100 µM (inactive)
same,GI50,[37],> 100 µM (inactive)
same,GI50,[38],> 100 µM (inactive)
N#Cc1ccc(Oc2ccccc2)cc1C#N,GI50,[1],23.2 µM (inactive)
same,GI50,[2],72.3 µM (inactive)
same,GI50,[3],> 100 µM (inactive)
same,GI50,[4],> 100 µM (inactive)
same,GI50,[39],> 100 µM (inactive)
same,GI50,[5],42.8 µM (inactive)
same,GI50,[40],> 100 µM (inactive)
same,GI50,[41],82.4 µM (inactive)
same,GI50,[42],23.4 µM (inactive)
same,GI50,[6],19.1 µM
same,GI50,[7],> 100 µM (inactive)
same,GI50,[8],> 100 µM (inactive)
same,GI50,[43],> 100 µM (inactive)
same,GI50,[9],> 100 µM (inactive)
same,GI50,[44],33.1 µM (inactive)
same,GI50,[10],49.3 µM (inactive)
same,GI50,[11],> 100 µM (inactive)
same,GI50,[12],> 100 µM (inactive)
same,GI50,[45],28.2 µM (inactive)
same,GI50,[46],> 100 µM (inactive)
same,GI50,[13],> 100 µM (inactive)
same,GI50,[14],23.7 µM (inactive)
same,GI50,[47],> 100 µM (inactive)
same,GI50,[48],20.7 µM (inactive)
same,GI50,[49],> 100 µM (inactive)
same,GI50,[50],> 100 µM (inactive)
same,GI50,[15],> 100 µM (inactive)
same,GI50,[16],> 100 µM (inactive)
same,GI50,[51],92.3 µM (inactive)
same,GI50,[17],54.6 µM (inactive)
same,GI50,[18],> 100 µM (inactive)
same,GI50,[19],> 100 µM (inactive)
same,GI50,[20],96.4 µM (inactive)
same,GI50,[52],> 100 µM (inactive)
same,GI50,[21],44.3 µM (inactive)
same,GI50,[22],17.4 µM (inactive)
same,GI50,[23],53.2 µM (inactive)
same,GI50,[24],> 100 µM (inactive)
same,GI50,[53],20.4 µM (inactive)
same,GI50,[25],> 100 µM (inactive)
same,GI50,[26],> 100 µM (inactive)
same,GI50,[54],96.2 µM (inactive)
same,GI50,[28],> 100 µM (inactive)
same,GI50,[29],63.4 µM (inactive)
same,GI50,[30],> 100 µM (inactive)
same,GI50,[55],42.6 µM (inactive)
same,GI50,[56],> 100 µM (inactive)
same,GI50,[31],54.2 µM (inactive)
same,GI50,[32],> 100 µM (inactive)
same,GI50,[33],> 100 µM (inactive)
same,GI50,[34],22.4 µM (inactive)
same,GI50,[35],74.8 µM (inactive)
same,GI50,[36],> 100 µM (inactive)
same,GI50,[57],65.2 µM (inactive)
same,GI50,[58],> 100 µM (inactive)
same,GI50,[37],> 100 µM (inactive)
same,GI50,[38],59.3 µM (inactive)
COc1ccc(NC(=O)c2cc(OC)cc(OC)c2)cc1,GI50,[1],7.1 µM (inactive)
same,GI50,[2],27.9 µM (inactive)
same,GI50,[3],> 46.7 µM (inactive)
same,GI50,[4],9.38 µM (inactive)
same,GI50,[39],98.4 µM (inactive)
same,GI50,[5],18 µM (inactive)
same,GI50,[40],47.3 µM (inactive)
same,GI50,[41],25.9 µM (inactive)
same,GI50,[42],13.6 µM (inactive)
same,GI50,[6],6.93 µM
same,GI50,[7],57.4 µM (inactive)
same,GI50,[8],> 85.7 µM (inactive)
same,GI50,[43],> 59.8 µM (inactive)
same,GI50,[9],80.5 µM (inactive)
same,GI50,[44],9.89 µM (inactive)
same,GI50,[10],4.74 µM (inactive)
same,GI50,[11],36.7 µM (inactive)
same,GI50,[12],23 µM (inactive)
same,GI50,[45],6.98 µM (inactive)
same,GI50,[46],41.1 µM (inactive)
same,GI50,[13],36.6 µM (inactive)
same,GI50,[14],7.29 µM (inactive)
same,GI50,[47],43.7 µM (inactive)
same,GI50,[48],17.6 µM (inactive)
same,GI50,[49],4.49 µM (inactive)
same,GI50,[50],17.8 µM (inactive)
same,GI50,[15],28 µM (inactive)
same,GI50,[16],12.1 µM (inactive)
same,GI50,[51],44 µM (inactive)
same,GI50,[17],26 µM (inactive)
same,GI50,[18],24.2 µM (inactive)
same,GI50,[19],> 100 µM (inactive)
same,GI50,[20],67 µM (inactive)
same,GI50,[52],31.4 µM (inactive)
same,GI50,[21],17.5 µM (inactive)
same,GI50,[22],9.02 µM (inactive)
same,GI50,[23],4.49 µM (inactive)
same,GI50,[24],4.81 µM (inactive)
same,GI50,[53],11.6 µM (inactive)
same,GI50,[25],11.3 µM (inactive)
same,GI50,[26],25.1 µM (inactive)
same,GI50,[27],7.01 µM (inactive)
same,GI50,[54],> 100 µM (inactive)
same,GI50,[28],> 36.5 µM (inactive)
same,GI50,[29],21.9 µM (inactive)
same,GI50,[30],> 60.8 µM (inactive)
same,GI50,[55],40.5 µM (inactive)
same,GI50,[56],31.7 µM (inactive)
same,GI50,[32],12.1 µM (inactive)
same,GI50,[33],45.7 µM (inactive)
same,GI50,[34],27.9 µM (inactive)
same,GI50,[35],8.41 µM (inactive)
same,GI50,[36],> 70.3 µM (inactive)
same,GI50,[57],17.1 µM (inactive)
same,GI50,[58],17.8 µM (inactive)
same,GI50,[37],35.4 µM (inactive)
same,GI50,[38],14.8 µM (inactive)
